Several values for one entry are separate records, joined by “and”; a condition that tells them apart may be missing. Identical values can stand only once.
Experiments:
[1] = system: human prostate cancer cells (DU145); assay: MTT cell viability assay, DU145; format: cell-based; conditions: 72 h
Procedure: (§1) Experiments were performed on human prostate cancer cells (DU145; ATCC HTB-81), human lung cancer cells (A549; ATCC CCL-185-LUC2) and human bronchial epithelium cells (BEAS-2B; ATCC CRL-9609). Cells were grown in Dulbecco's modified Eagle's medium (DMEM) supplemented with 10% of heat-inactivated foetal bovine serum (FBS), 100 U/ml penicillin and 100 μg/ml streptomycin (Sigma-Aldrich, Steinheim, Germany). Cells were incubated at 37 °C in a humidified atmosphere with 5% CO2. […] Cells were seeded into 96-well plates at a density of 7,0 × 10[3] cells/well in 100 µl of culture medium. After 24 h, cells were treated with the compounds at three different concentrations (1 µM, 10 µM and 50 µM) for 72 h. Following treatments, 0.5 mg/ml of 3-[4,5-dimethylthiazol-2-yl]-2,5-diphenyltetrazolium bromide (MTT) (Sigma Aldrich) was added to each well and incubated for 4 h at 37 °C. Finally, DMSO was used to dissolve formazan salts and absorbance was measured at 570 nm in a microplate reader (Biotek Synergy-HT). […]
(§2) Compound 3 was preliminarily assessed for its cytotoxic activity towards human prostate and lung cancer cell lines (DU145 and A549, respectively), in which the overexpression of the HO-1 has been confirmed[46]^,[47]. […] Cell survival was calculated compared to untreated controls for 72 h. At the end of treatment, cell viability was evaluated using the MTT assay. […]

[2] = system: human lung cancer cells (A549); assay: MTT cell viability assay, A549; format: cell-based; conditions: 72 h
Procedure: as §1, §2

[3] = set-up: method as in PMID 29454190; conditions: predicted, ref [34], cited from earlier work
[4] = set-up: method as in PMID 29454190; conditions: predicted; ref [34]; cited from earlier work
HO-1 = molecular target: T1, HO-1 (Rattus norvegicus, UniProt P06762); assay: HO-1 enzymatic activity in the microsomal fraction of rat spleen (bilirubin formation); format: biochemical; conditions: mean ± SD of triplicate assays
T1 construct: selected in order to use the most native (i.e. closest to in vivo) forms of HO-1; from tissue; host or cells: rat spleen microsomal fraction (male Sprague-Dawley rats)
T1 sequence (P06762 1-289): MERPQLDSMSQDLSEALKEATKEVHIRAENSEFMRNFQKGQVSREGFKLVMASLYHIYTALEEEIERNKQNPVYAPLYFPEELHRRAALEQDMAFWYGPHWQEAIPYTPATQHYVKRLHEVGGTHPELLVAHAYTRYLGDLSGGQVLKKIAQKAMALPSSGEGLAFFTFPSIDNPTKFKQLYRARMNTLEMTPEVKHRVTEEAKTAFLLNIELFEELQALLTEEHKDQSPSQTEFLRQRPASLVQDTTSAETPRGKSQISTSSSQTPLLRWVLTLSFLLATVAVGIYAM
Procedure: Since the dominance of HO-1 protein in the rat spleen has been well documented, HO-1 was obtained from rat spleen as the microsomal fraction prepared by differential centrifugation. This particular microsomal preparation was selected in order to use the most native (i.e. closest to in vivo) forms of HO-1. Spleen (Sprague-Dawley rats) microsomal fractions were prepared according to the procedure outlined by Ryter et al.[33]. The experiments reported in the present paper complied with current Italian law and met the guidelines of the Institutional Animal Care and Use Committee of […] OF HEALTH (Directorate General for Animal Health and Veterinary Medicines) (Italy). […]
Liver cytosol has been used as a source of BVR. […] The 100,000 g supernatant was saved and then stored in small amounts at −80 °C after its protein concentration was measured.
The HO-1 activity was determined by measuring the bilirubin formation using the difference in absorbance at 464 to 530 nm as described by Ryter et al.[33]. […] After recovering the chloroform phase, the amount of bilirubin formed was measured with a double-beam spectrophotometer as OD464-530 nm (extinction coefficient, […] for bilirubin). […]
Inhibition activity assay for HO-1 was performed by extracting the enzyme from the rat spleen microsomal fraction. […] Results are expressed as enzyme inhibition activity (IC50) in μM (Table S2, Supplemental material).

[5] = Chemical stability of 3 in buffer solutions at different pHs (HPLC); format: physicochemical; conditions: 37 °C
Procedure: The HPLC analysis of samples at various time intervals from in vitro stability in different buffers and porcine esterase solution was performed on Shimadzu Prominence-i LC-2030C 3 D Plus equipped with RID20A. Detector chromatographic separation were carried out using Chromolith SpeedROD RP […], Merck. Spectra were analysed in 200–800 nm range with 1.2 nm resolution. The column was maintained at 30 °C and eluted under gradient conditions from 100% to 0% of eluent A over 3 min, at a flow rate of 5 ml min^−1. Eluent A: water/trifluoroacetic acid (0.1%, v/v); eluent B: acetonitrile/ trifluoroacetic acid (0.1%, v/v).
A stock solution of compound 3 in DMSO (3.0 mg/mL) was prepared. To a test tube containing 0.9 ml of the corresponding Acetate (pH = 2.0) or PBS buffer solution (pH = 7.4 and 8.0, respectively), 0.1 ml of stock solution was added, and the mixture stirred and thermostated in a sand bath at 37 °C. Aliquots (0.1 ml) were withdrawn at specific time intervals and transferred to sample vials containing acetonitrile (0.9 ml). The percentage of compound remaining was followed by HPLC analysis. The retention time (tR) of compound 1, 2, and 3 were 0.74, 0.89, and 0.95 min, respectively. All the experiments were performed in triplicate.
0.001 g of lyophilised powder of esterase from the porcine liver (Sigma-Aldrich, St. Louis, Missouri, USA) was reconstituted in 1.0 ml PBS buffer (0.01 M, pH 7.4) to make an aqueous porcine esterase solution (5 U/mL), and then pre-thermostated at 37 °C. To a test tube containing 1.85 ml of PBS buffer, 0.15 ml from the stock solution of the test compound was added. The mixture was then stirred and thermostated in a sand bath at 37 °C, and 1.0 ml of the porcine esterase solution was added to initiate the enzymatic reaction. For the negative control reaction, the volume of porcine esterase solution was replaced by phosphate buffer. Aliquots (0.3 ml) were withdrawn at 0, 30, 60, 120, 180, and 240 min, and quenched with cold acetonitrile (0.7 ml)[28]. The samples were centrifuged for 6 min at 10,000 rpm, and supernatants were analysed by HPLC to check the amounts (area under the curve, AUC) of the remaining intact compound. All the experiments were performed in triplicate. Pseudo-first-order rate constant for the hydrolysis was determined from the slope of linear plots of the natural logarithm (ln) of the AUC of the peak at time t (AUCt) against time. Half-life (t1/2) was calculated according to Equation (1): (1) t1/2 = ln 2/k were k is the pseudo-first-order rate constant.
The chemical stability of 3 was evaluated at different pH values to mimic physiological conditions, including gastrointestinal (GI) tract (pH = 2.0), human plasma (pH = 7.4), and pancreatic fluid (pH = 8.0). As a result, the pH value strongly affected the chemical stability and hydrolysis rate of the hybrid 3 (Figure 2).

OC(Cn1ccnc1)c1cccc(Br)c1 (centres unmarked) [Compound 1, 1–(3-bromophenyl)-2-(1H-imidazol-1-yl)ethanol]
Effect on cell viability ([1]; DU145 cells, 1, 10 and 50 μM): no cytotoxic effect | Effect on cell viability ([2]; A549 cells, 1, 10 and 50 μM): no cytotoxic effect | HIA (%) ([3]; human intestinal absorption): 96.1% | Papp ([3]; in vitro Caco-2 cell permeability): 2.96 ×10⁻⁶ cm/s | PPB (%) ([3]; in vitro plasma protein binding): 65% | BBB (Cbrain/Cblood) ([3]; in vivo blood-brain barrier penetration): 0.7 Cbrain/Cblood | Toxicity prediction: Irritant [4]: none | Toxicity prediction: Mutagenic [4]: none | Toxicity prediction: Reproductive Effects [4]: none | Toxicity prediction: Tumorigenic [4]: none

O=C(O)CCC(=O)OC(Cn1ccnc1)c1cccc(Br)c1 (centres unmarked) [Compound 2, 4‐[1‐(3‐bromophenyl)‐2‐(1H‐imidazol‐1‐yl)ethoxy]‐4‐oxobutanoic acid]
IC50 (HO-1): 105 ± 5.8 µM | melting point: 64 to 66.5 °C

O=C(CCC(=O)OC(Cn1ccnc1)c1cccc(Br)c1)OCn1cc(F)c(=O)[nH]c1=O (centres unmarked) [Compound 3, 1‐[1‐(3‐bromophenyl)‐2‐(1H‐imidazol‐1‐yl)ethyl]4‐(5‐fluoro‐2,4‐dioxo‐1,2,3,4‐tetrahydropyrimidin‐1‐yl)methyl butanedioate]
IC50 (HO-1): 82 ± 2.1 µM | half-life at 0.15 mg/mL ([5]; PBS buffer without esterase, PBS buffer (pH = 7.4), no esterase, read-out: Half-life (t1/2) of hydrolysis): 28.1 h | % Compound remaining ([5]; pH = 2.0, 0 h): 100 ± 0.0% | % Compound remaining ([5]; pH = 2.0, 24 h): 94.2 ± 0.9% and 94.2% | % Compound remaining ([5]; pH = 2.0, 48 h): 92.2 ± 0.6% | % Compound remaining ([5]; pH = 2.0, 72 h): 86.8 ± 6.0% | % Compound remaining ([5]; pH = 2.0, 96 h): 77.1 ± 6.5% | % Compound remaining ([5]; pH = 2.0, 168 h): 73.5 ± 4.7% | % Compound remaining ([5]; pH = 7.4, 0 h): 100 ± 0.0% | % Compound remaining ([5]; pH = 7.4, 24 h): 77.3 ± 3.9% and 77.3% | % Compound remaining ([5]; pH = 7.4, 48 h): 71.2 ± 4.5% | % Compound remaining ([5]; pH = 7.4, 72 h): 52.6 ± 3.8% | % Compound remaining ([5]; pH = 7.4, 96 h): 34.7 ± 2.2% | % Compound remaining ([5]; pH = 7.4, 168 h): 18.0 ± 4.2% | % Compound remaining ([5]; pH = 8.0, 0 h): 100 ± 0.0% | % Compound remaining ([5]; pH = 8.0, 24 h): 50.4 ± 2.4% and 50.4% | % Compound remaining ([5]; pH = 8.0, 48 h): 36.1 ± 2.1% | % Compound remaining ([5]; pH = 8.0, 72 h): 19.7 ± 1.6%

O=c1[nH]cc(F)c(=O)[nH]1 [Compound 5-FU, 5-Fluorouracil, reference compound]
IC50 ([1]; Homo sapiens, DU-145, DU145 cells, MTT): 31.7 ± 0.92 µM | IC50 ([2]; Homo sapiens, A549 cells, MTT): 0.98 ± 0.13 µM

— article PMC8231349 (Journal of Enzyme Inhibition and Medicinal Chemistry, 2021)
